Converted amounts (≈) assume the structure as drawn.
Tests used:
[1] = system: M. tuberculosis H37Rv expressing the green fluorescent protein (H37Rv-GFP); experiment: microbe, parasite or virus in culture; type: cell-based; settings: Mycobacterium tuberculosis, H37RV, 120 h; read-out: QUM (MIC50)
[2] = system: Raw 264.7 cells infected with H37Rv-GFP; experiment: microbe, parasite or virus in culture; type: cell-based, M. tuberculosis; settings: Mycobacterium tuberculosis, H37RV, 120 h; read-out: QIM (MIC50)

| Structure (SMILES) | MIC50 [1] [µM] | MIC50 [2] [µM] | melting point [°C] |
| --- | --- | --- | --- |
| COc1ccc(OC(=O)c2ccc(NC(=O)c3cc4sc(N5CCOCC5)nc4s3)cc2)cc1 [Compound 111] | 1 to 20 (≈ 0.496 to 9.91 µg/mL) | < 1 | 302.6 |
| COc1ccc(NC(=O)c2cc3sc(N4CCN(C)CC4)nc3s2)cc1 [Compound 110] | 1 to 20 (≈ 0.389 to 7.77 µg/mL) | < 1 | 219.8 |
| Cn1ccc(-c2ccc(NC(=O)c3cc4sc(N5CCOCC5)nc4s3)cc2)n1 [Compound 145] | 1 to 20 (≈ 0.426 to 8.51 µg/mL) | < 1 | 314 |
| O=C(Nc1ccc(F)cc1)c1cc2sc(N3CCC(CO)CC3)nc2s1 [Compound 142] | < 1 | < 1 | 246.3 |
| COc1ccc(CCNC(=O)c2cc3nc(N4CCCCC4)sc3s2)cc1 [Compound 22] | 1 to 20 (≈ 0.402 to 8.03 µg/mL) | 1 to 20 (≈ 0.402 to 8.03 µg/mL) | 188 |
| O=C(Nc1ccccc1)c1cc2nc(N3CCCCC3)sc2s1 [Compound 25] | > 20 | 1 to 20 (≈ 0.343 to 6.87 µg/mL) | 222.6 |
| O=C(Nc1ccc(-c2ccn(C3CCCCO3)n2)cc1)c1cc2sc(N3CCOCC3)nc2s1 (stereo not drawn) [Compound 155] | > 20 | < 1 | 293 |
| CC(C)(C)OC(=O)n1ncc2cc(NC(=O)c3cc4sc(N5CCOCC5)nc4s3)ccc21 [Compound 88] | > 20 | > 20 | 331.7 |
| O=C(Nc1ccc2[nH]ncc2c1)c1cc2sc(N3CCOCC3)nc2s1 [Compound 89] | > 20 | > 20 | 329.8 |
| Cc1nc2cc(NC(=O)c3cc4sc(N5CCOCC5C(=O)N(C)C)nc4s3)ccc2o1 (stereo not drawn) [Compound 175] | > 20 | > 20 | 288.6 |
| COc1ccc(NC(=O)c2cc3ncsc3s2)cc1 [Compound 21] | > 20 | > 20 | 236 |
| COc1ccc(NC(=O)c2cc3sc(N4CCCC4)nc3s2)cc1 [Compound 78] | < 1 | < 1 | 274.4 |
| O=C(Nc1ccc(F)c(F)c1)c1cc2sc(N3CCCCC3)nc2s1 [Compound 36] | 1 to 20 (≈ 0.379 to 7.59 µg/mL) | < 1 | 218 |
| COc1ccc(NC(=O)c2cc3sc(NC(=O)C4CCCCC4)nc3s2)cc1 [Compound 65] | > 20 | 1 to 20 (≈ 0.416 to 8.31 µg/mL) | 271 |
| COc1ccc(NC(=O)c2cc3sc(N4CCC4)nc3s2)cc1 [Compound 80] | 1 to 20 (≈ 0.345 to 6.91 µg/mL) | < 1 | 256 |
| COc1ccc(NC(=O)c2cc3sc(NC4CCCC4)nc3s2)cc1 [Compound 90] | < 1 | < 1 | 239.3 |
| COc1ncc(NC(=O)c2cc3nc(N4CCCCC4)sc3s2)cn1 [Compound 6] | 1 to 20 (≈ 0.375 to 7.51 µg/mL) | 1 to 20 (≈ 0.375 to 7.51 µg/mL) | 274 |
| COc1ccc(NC(=O)c2cc3sc(N4CC5CC4CN5)nc3s2)cc1 (stereo not drawn) [Compound 94] | > 20 | > 20 | 161 |
| CC(C)(C)OC(=O)c1ccc(NC(=O)c2cc3sc(N4CCOCC4)nc3s2)cc1 [Compound 129] | 1 to 20 (≈ 0.446 to 8.91 µg/mL) | < 1 | 244 |
| Cn1cc(F)c(-c2ccc(NC(=O)c3cc4sc(N5CCOCC5)nc4s3)cc2)n1 [Compound 162] | 1 to 20 (≈ 0.444 to 8.87 µg/mL) | < 1 | 280.5 |
| O=C(Nc1ccc2ncoc2c1)c1cc2sc(N3CCOCC3)nc2s1 [Compound 101] | 1 to 20 (≈ 0.386 to 7.73 µg/mL) | < 1 | 281.8 |
| COC(=O)C1CCC(NC(=O)c2cc3sc(N4CCCCC4)nc3s2)CC1 (stereo not drawn) [Compound 60] | 1 to 20 (≈ 0.408 to 8.15 µg/mL) | 1 to 20 (≈ 0.408 to 8.15 µg/mL) | 74 |
| O=C(Nc1cc(-c2ccccc2)[nH]n1)c1cc2sc(N3CCOCC3)nc2s1 [Compound 160] | > 20 | < 1 | 305 |

| Structure (SMILES) | MIC50 [1] [µM] | MIC50 [2] [µM] | melting point [°C] |
| --- | --- | --- | --- |
| Cc1nnc(-c2ccc(NC(=O)c3cc4sc(N5CCOCC5)nc4s3)cc2)o1 [Compound 103] | < 1 | < 1 | 319.1 |
| COc1ccc(NC(=O)c2cc3sc(N4CCCCC4)nc3s2)cn1 [Compound 47] | < 1 | < 1 | 232.4 |
| COc1ccc(NC(=O)c2cc3sc(N4CCCCC4)nc3s2)cc1 [Compound 35] | < 1 | < 1 | 235 |
| Cc1nc2cc(NC(=O)N3CCc4nc(N5CCOCC5)sc4C3)ccc2o1 [Compound 187] | > 20 | > 20 | 104 |
| Cc1nc2cc(CCNC(=O)c3cc4sc(N5CCOCC5)nc4s3)ccc2o1 [Compound 177] | 1 to 20 (≈ 0.429 to 8.57 µg/mL) | < 1 | 219.4 |
| Cc1nc2ccc(NC(=O)c3cc4sc(N5CCCCC5)nc4s3)cc2o1 [Compound 48] | < 1 | < 1 | 259.2 |
| O=C(Nc1ccc(OC(F)(F)F)cc1)c1cc2sc(N3CCCCC3)nc2s1 [Compound 58] | 1 to 20 (≈ 0.427 to 8.55 µg/mL) | < 1 | 239 |
| Cc1nc2cc(NC(=O)c3cc4sc(N5CCOCC5)nc4s3)c(Cl)cc2o1 [Compound 141] | > 20 | > 20 | 277 |
| CN(C(=O)c1cc2nc(N3CCCCC3)sc2s1)c1ccc(F)c(F)c1 [Compound 20] | 1 to 20 (≈ 0.393 to 7.87 µg/mL) | > 20 | 170.1 |
| O=C(Nc1ccccc1)c1cc2sc(N3CCCCC3)nc2s1 [Compound 46] | 1 to 20 (≈ 0.343 to 6.87 µg/mL) | < 1 | 259.1 |
| COc1ccc(NC(=O)c2cc3sc(N4CCCC(OCc5ccccc5)C4)nc3s2)cc1 (stereo not drawn) [Compound 95] | > 20 | < 1 | 169 |
| COc1ccc(NC(=O)c2cc3sc(N4CCC(OCc5ccccc5)CC4)nc3s2)cc1 [Compound 77] | 1 to 20 (≈ 0.48 to 9.59 µg/mL) | < 1 | 190.3 |
| COC(=O)C1CCN(C(=O)c2cc3sc(N4CCCCC4)nc3s2)CC1 [Compound 56] | 1 to 20 (≈ 0.394 to 7.87 µg/mL) | 1 to 20 (≈ 0.394 to 7.87 µg/mL) | 136 |
| COc1ccc(NC(=O)c2cc3sc(N4CCC(C(=O)N(C)C)CC4)nc3s2)cc1 [Compound 127] | < 1 | < 1 | 273.4 |
| O=C(Nc1ccc(CN2CCC(c3ccc(Cl)cc3)CC2)cc1)c1cc2sc(N3CCOCC3)nc2s1 [Compound 200] | > 20 | > 20 | 254.6 |
| O=C(Nc1cccc(Br)c1)c1cc2sc(N3CCOCC3)nc2s1 [Compound 118] | > 20 | < 1 | 199 |
| CN(C)C(=O)C1CCN(c2nc3sc(C(=O)Nc4ccc(F)cc4)cc3s2)CC1 [Compound 136] | < 1 | < 1 | 296.2 |
| COc1ccc(NC(=O)c2ccc3nc(N4CCCCC4)sc3c2)cc1 [Compound 5] | > 20 | > 20 | 214 |
| Cc1cnc(-c2ccc(NC(=O)c3cc4sc(N5CCOCC5)nc4s3)cc2)o1 [Compound 154] | < 1 | < 1 | 287.3 |
| COc1ccc(CNC(=O)c2cc3nc(N4CCCCC4)sc3s2)cc1 [Compound 7] | > 20 | > 20 | 179 |
| O=C(Nc1ccc(O)cc1)c1cc2nc(N3CCCCC3)sc2s1 [Compound 18] | 1 to 20 (≈ 0.359 to 7.19 µg/mL) | > 20 | 266 |
| Cc1nn(C)cc1-c1ccc(NC(=O)c2cc3sc(N4CCOCC4)nc3s2)cc1 [Compound 167] | 1 to 20 (≈ 0.44 to 8.79 µg/mL) | < 1 | 245 |
| Cn1ncc2ccc(NC(=O)c3cc4sc(N5CCOCC5)nc4s3)cc21 [Compound 131] | > 20 | > 20 | 288 |

From patent US11279714B2, “Anti-infective compounds” (priority 2014, dated 2022)
